Key:
[1] = system: murine model of collagen-induced arthritis; assay: Collagen-induced arthritis model (CIA model), Example 9; format: in vivo, female DBA/1J mice; design: key to terminal individual paw score, Front right, group mean / terminal individual paw score, Front left, group mean / terminal individual paw score, Rear right, group mean / terminal individual paw score, Rear left, group mean: paw score 0 = no arthritis to 4 = severe arthritis of entire paw; key to Arthritic Index (AI), group mean: sum of four paw scores, each 0 (no arthritis) to 4 (severe); max 16; settings: for Arthritic Index (AI), group mean: peptide 4 μg/mouse, methotrexate 3 mg/kg, subcutaneous
Protocol: The CIA model is the “standard” animal model for evaluation of anti-arthritic activity based on immunization with bovine collagen to develop antibodies against bone and cartilage.
The aim was to determine anti-arthritic dosing paradigm in a murine model of collagen-induced arthritis. This study was carried out in female DBA/1J mice. The effect of the Env59 ISU peptides on disease development is compared with a methotrexate MTX (positive control) or saline treated control group.
Day 0: The mice were weighted and injected subcutaneously at the nape of the neck as in the table below (table 3):
(§1) An hour later, the mice were injected subcutaneously at the base of the tail with 50 μl of the collagen/CFA emulsion.
(§2) Mice were scored for signs of arthritis every Monday, Wednesday, and Friday during the next 41 days as follows: • Each paw receives a score • 0=no visible effects of arthritis • 1=edema and/or erythema of 1 digit • 2=edema and/or erythema of 2 digits • 3=edema and/or erythema of more than 2 digits • 4=severe arthritis of entire paw and digits
(§3) The Arthritic Index (AI) was calculated by the addition of individual paw scores.
(§4) Day 42 The mice were weighted and scored for signs of arthritis.

[2] = system: murine model of collagen-induced arthritis; assay: Collagen-induced arthritis model (CIA model), study number 2, Example 12; format: in vivo, female DBA/1J mice; design: key to Terminal Individual Paw Score, Front right, group mean / Terminal Individual Paw Score, Front left, group mean / Terminal Individual Paw Score, Rear right, group mean / Terminal Individual Paw Score, Rear left, group mean: 0 = no arthritis, 4 = severe arthritis of entire paw; key to Arthritic Index (AI), group mean: sum of four paw scores, each 0 = none to 4 = severe; settings: for Arthritic Index (AI), group mean: peptides 4 μg/mouse, methotrexate 1 mg/kg, subcutaneous
Protocol: The CIA model as described in an Example 9 is the “standard” animal model for evaluation of anti-arthritic activity based on immunization with bovine collagen to develop antibodies against bone and cartilage.
Here we present data on investigating in vivo effect of the HERV-Env59, SG#2, and SG#5 and SG#15 peptides. The aim was to determine anti-arthritic dosing paradigm in a murine model of collagen-induced arthritis. This study was carried out in female DBA/1J mice. The effect of the Env59 ISU peptide, SG#2, SG#5 or SG#15 peptide on disease development is compared with a methotrexate MTX (positive control) or saline treated control group.
Day 0: The mice were weighted and injected subcutaneously at the nape of the neck as in the table below (table 6):
as §1, §2, §3, §4

CN(Cc1cnc2nc(N)nc(N)c2n1)c1ccc(C(=O)N[C@@H](CCC(=O)O)C(=O)O)cc1 [Methotrexate, reference compound]
0: terminal individual paw score, Front left, group mean ([1]; day 42) | terminal individual paw score, Front right, group mean ([1]; day 42) | terminal individual paw score, Rear left, group mean ([1]; day 42) | terminal individual paw score, Rear right, group mean ([1]; day 42) | Arthritic Index (AI), group mean ([1]; study day 21) | Arthritic Index (AI), group mean ([1]; study day 22) | Arthritic Index (AI), group mean ([1]; study day 25) | Arthritic Index (AI), group mean ([1]; study day 27) | Arthritic Index (AI), group mean ([1]; study day 29) | Arthritic Index (AI), group mean ([1]; study day 32) | Arthritic Index (AI), group mean ([1]; study day 34) | Arthritic Index (AI), group mean ([1]; study day 36) | Arthritic Index (AI), group mean ([1]; study day 38) | Arthritic Index (AI), group mean ([1]; study day 41) | Arthritic Index (AI), group mean ([1]; study day 42) | Terminal Individual Paw Score, Front left, group mean ([2]; day 42) | Terminal Individual Paw Score, Front right, group mean ([2]; day 42) | Terminal Individual Paw Score, Rear left, group mean ([2]; day 42) | Terminal Individual Paw Score, Rear right, group mean ([2]; day 42) | Arthritic Index (AI), group mean ([2]; study day 14) | Arthritic Index (AI), group mean ([2]; study day 21) | Arthritic Index (AI), group mean ([2]; study day 25) | Arthritic Index (AI), group mean ([2]; study day 27) | Arthritic Index (AI), group mean ([2]; study day 29) | Arthritic Index (AI), group mean ([2]; study day 32) | Arthritic Index (AI), group mean ([2]; study day 34) | Arthritic Index (AI), group mean ([2]; study day 36) | Arthritic Index (AI), group mean ([2]; study day 39) | Arthritic Index (AI), group mean ([2]; study day 41) | Arthritic Index (AI), group mean ([2]; study day 42)

Source: patent publication US20190040106A1, “USE OF HUMAN DERIVED IMMUNOSUPPRESSIVE PROTEINS AND PEPTIDES AS MEDICAMENTS” (AIMVION A/S, priority 2015, published 2019)
